The values below come from US20220213092A1, “BICYCLIC PYRAZOLE BRUTON'S TYROSINE KINASE INHIBITORS” (AbbVie Inc., priority 2020, published 2022).

pEC50, pIC50: −log10 of the molar value.

The target in one series is T1, BTK (Homo sapiens, UniProt Q06187).
T1 construct: purchased Nanosyn, Santa Clara, Calif; host or cells: 293HEK
In words: BTK kinase electrophoretic mobility shift assay (MSA). Format: biochemical. The conditions noted are these: 50 μM ATP, 0.5 nM BTK enzyme (Nanosyn-293HEK, WT), 3 hours at 25° C.; all examples except 50, 51, 62 and 63; read-out: BTK IC50.

A further series has as its system CYP3A4. In words: CYP3A4 induction assay (CYP 3A4 mRNA by qPCR in cryopreserved human hepatocytes). In kind it is in vitro ADME. To be noted: CYP3A4 mRNA fold change vs vehicle, 10 μM compound. As to the method:
CYP induction was evaluated in vitro by determining the expression levels of CYP 3A4 mRNA using the qPCR (quantitative polymerase chain reaction) assay. On day one, cryopreserved human hepatocytes were thawed in prewarmed (37° C.) thawing medium (cryopreserved hepatocyte recovery medium, Gibco™ CM 7000; Thermo Fisher Scientific), centrifuged (1000 g for 10 minutes) and resuspended in plating medium (Gibco™ CM3000—Williams Medium E supplemented with hepatocytes plating supplement pak-serum containing; Thermo Fisher Scientific). Cells were counted by trypan blue exclusion using a hemocytometer and adjusted to a cell density of […]. Thereafter, […] of cell suspension was aliquoted per well in a 96-well plate, resulting in 60,000 cells/well. Plates were shaken in the north-south and east-west direction during plating. Plated cells were incubated at 37° C./5% CO2 in a humidified cell culture incubator for 4-6 hours. During this time, incubation medium (Gibco™ CM4000, cell maintenance supplement pack; Thermo Fisher Scientific) was mixed with Gibco™ Geltrex™ (Thermo Fischer Scientific) at the appropriate Geltrex™ protein concentration. Following recovery, medium was removed from cells and replaced with freshly prepared incubation medium. Cells were incubated overnight in a cell culture incubator (37° C./5% CO2).
The next day the incubation medium was prepared by combining the hepatocyte maintenance supplement pack with Williams medium E. The medium was warmed to 37° C. 1000× dimethyl sulfoxide compound stocks were prepared to the desired concentrations. 10 mM compound stocks in dimethyl sulfoxide were diluted (1 μL to 1 mL CM4000; final concentration=10 μM). Overlay medium was aspirated and […] dose solution added to the desired labeled 96 well plate. Cells were returned to the humidified incubator overnight (37° C./5% CO2).
On day 3, incubation medium was warmed to 37° C., and the same process for compound preparation repeated as in day 2, i.e. 1000× dimethyl sulfoxide compound stocks were prepared to the desired concentration, diluted (1:1000) in warm incubation medium, and this freshly prepared medium was used to replace treatment medium. Cells were returned to the humidified incubator (37° C./5% CO2) overnight.
On day 4, RNA isolation was performed. Prior to RNA isolation, cell viability was assessed using presto blue reagent. 10× dilution of PrestoBlue™ reagent (Thermo Fisher Scientific) was prepared by mixing 1.4 mL PrestoBlue™ with 12.6 mL incubation medium. Medium was aspirated from cells, and 100 μL of cell viability medium (10× dilution of PrestoBlue™ reagent) added and incubated for 17 minutes. Cell viability was determined by measuring absorbance using a microplate reader (Spark® 10M Tecan Life Sciences). After this measurement, media was aspirated using a multichannel aspirator and a glass pipet to completely aspirate from each well. Plates were stored or immediately used for mRNA isolation. All surfaces were cleaned using RNase away. 2× Lysis buffer was well mixed after incubation at ambient temperature. Fresh lysis buffer was prepared by mixing 0.125 μL of 0.5 mM DTT with 4.875 μL 2× lysis buffer. 1× lysis buffer containing DTT was then prepared by adding 5 μL dilution buffer to the 2× lysis buffer and mixing thoroughly. Thereafter, cell lysates were prepared by adding 1× lysis buffer to each sample well (96-well plate). Samples were incubated for 3-6 minutes at ambient temperature while shaking (350-400 rpm) to lyse the cells. Cells were scrapped with tips, and cell lysate (80 μL) was transferred to each well of the mRNA Catcher PLUS™ plate (Thermo Fisher Scientific). mRNA Catcher PLUS™ plate containing samples was covered with adhesive plastic film plate cover and incubated at ambient temperature for 45-60 minutes for RNA hybridization.
After hybridization, lysate was aspirated from the cells. […]
On the technique in general: Quantitative PCR measures a nucleic acid by following its amplification.

The target in series [1] is T2, Full length BTK enzyme (human BTK residues 2-659) (Homo sapiens, UniProt Q06187).
T2 construct: 6His (N); Flag (N); TEV cleavage site (N); Serine (single linker residue before BTK residue 2) (N); made in house; host or cells: baculovirus (pFastBac vector)
T2 sequence (Q06187 2-659): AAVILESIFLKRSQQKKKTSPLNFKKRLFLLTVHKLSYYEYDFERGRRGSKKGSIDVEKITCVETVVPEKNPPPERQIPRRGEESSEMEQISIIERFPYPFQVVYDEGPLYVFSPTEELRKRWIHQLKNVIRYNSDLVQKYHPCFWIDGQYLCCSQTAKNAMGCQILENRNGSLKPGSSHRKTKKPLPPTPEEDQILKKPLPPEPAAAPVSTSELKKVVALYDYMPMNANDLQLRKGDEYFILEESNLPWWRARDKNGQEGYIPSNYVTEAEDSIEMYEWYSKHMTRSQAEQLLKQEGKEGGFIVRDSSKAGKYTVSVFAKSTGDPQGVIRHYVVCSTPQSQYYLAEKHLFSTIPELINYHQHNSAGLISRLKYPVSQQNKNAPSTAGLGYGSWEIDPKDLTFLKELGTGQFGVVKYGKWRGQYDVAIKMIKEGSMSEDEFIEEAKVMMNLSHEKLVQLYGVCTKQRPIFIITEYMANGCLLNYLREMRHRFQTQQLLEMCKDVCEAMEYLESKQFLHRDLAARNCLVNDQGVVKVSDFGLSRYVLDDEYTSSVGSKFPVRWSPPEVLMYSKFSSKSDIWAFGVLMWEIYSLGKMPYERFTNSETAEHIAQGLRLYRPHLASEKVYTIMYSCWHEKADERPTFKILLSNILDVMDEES
In words: BTK MSA with full length BTK enzyme, used for Examples 50, 51, 62 and 63. Format: biochemical. The conditions noted are these: Examples 50, 51, 62 and 63: 1 mM ATP, 0.6 nM full length BTK enzyme, 3 hours at room temperature. The procedure: Kinase activities for Examples 50, 51, 62 and 63 were measured in vitro using the following electrophoretic mobility shift assay (MSA). The kinase reactions were assembled in a total volume of 20 μL in 384 well plates. To each well, 20 nL test compound, or control, in 100% dimethyl sulfoxide was spotted using Echo®, a liquid dispensing instrument (Labcyte, Indianapolis, Ind.). To each well was added: 12 μL of 1.67× Full length BTK enzyme in Master Buffer (Master Buffer components: 20 mM HEPES pH 7.4, 10 mM MgCl2, 1 mM DTT, 0.1 mM sodium orthovanadate, 10 mM beta-glycerophosphate, and 0.0075% w/v Triton x-100). Full length BTK enzyme was 6His-Flag-(TEV)-S[BTK(hu) (2-659)]*BEV, pFastBac*. [Note: this is a description of the exact amino acid sequence of the expressed BTK construct from N- to C-terminus: 6Histidines, Flag tag sequence, TEV cleavage site, Serine, human BTK residues 2-659; and BEV=expressed in baculovirus, pFastBac is the expression vector used].
Enzyme and compound/inhibitor were optionally pre-incubated. To each well was added: 8 μL of 2.5×ATP and substrate in 1× Master Buffer (1× Master Buffer as described above). The plate was incubated at room temperature for 3 hours. The reaction was terminated by adding 30 μL of 1.67× Stop Buffer (Stop Buffer components 10 mM EDTA in water), to each well. The final reaction mixture was as follows: 20 mM HEPES, pH 7.4; 0.0075% Triton X-100; 1 mM DTT; 10 mM MgCl2; 0.1 mM sodium orthovanadate; 10 mM beta-glycerophosphate; 0.1% dimethyl sulfoxide (from compound); 1 mM ATP; 1 μM (OG488-SEQ ID NO. 2-NH2) peptide substrate; and 0.6 nM BTK enzyme. […] The kinase activity for the kinases in Table 3 were measured at 3 hours incubation time, except that in the case of MAP2K1 and MAP2K2 assay, pre-activation of ERK was done for 30 min with 6 μM of ATP, and then the detection of activated ERK in the presence of compounds was done after 60 minutes of incubation.
The terminated reactions were analyzed using a 12 channel LABCHIP® 3000 microfluidic detection instrument (available from Caliper Life Sciences, Waltham, Mass.). […] As substrate and product peptides were separated, two peaks of fluorescence were observed. Change in the relative fluorescence intensity of the substrate and product peaks was the parameter measured, reflecting enzyme activity. […] Capillary electrophoregrams (RDA acquisition files) were analyzed using HTS Well Analyzer software (available from Caliper Life Sciences, Waltham, Mass.).
Activity in each sample was determined as the product to sum ratio (PSR): P/(S+P), where P was the peak height of the product peptide and S was the peak height of the substrate peptide. For each compound, enzyme activity was measured at various concentrations (12 concentrations of compound spaced by 3× dilution intervals). […]

In series [2] the target is T3, Phosphorylation of Y223 of BTK (Homo sapiens, UniProt Q06187).
T3 construct: host or cells: healthy human whole blood, 3 donors
T3 sequence (Q06187 whole entry): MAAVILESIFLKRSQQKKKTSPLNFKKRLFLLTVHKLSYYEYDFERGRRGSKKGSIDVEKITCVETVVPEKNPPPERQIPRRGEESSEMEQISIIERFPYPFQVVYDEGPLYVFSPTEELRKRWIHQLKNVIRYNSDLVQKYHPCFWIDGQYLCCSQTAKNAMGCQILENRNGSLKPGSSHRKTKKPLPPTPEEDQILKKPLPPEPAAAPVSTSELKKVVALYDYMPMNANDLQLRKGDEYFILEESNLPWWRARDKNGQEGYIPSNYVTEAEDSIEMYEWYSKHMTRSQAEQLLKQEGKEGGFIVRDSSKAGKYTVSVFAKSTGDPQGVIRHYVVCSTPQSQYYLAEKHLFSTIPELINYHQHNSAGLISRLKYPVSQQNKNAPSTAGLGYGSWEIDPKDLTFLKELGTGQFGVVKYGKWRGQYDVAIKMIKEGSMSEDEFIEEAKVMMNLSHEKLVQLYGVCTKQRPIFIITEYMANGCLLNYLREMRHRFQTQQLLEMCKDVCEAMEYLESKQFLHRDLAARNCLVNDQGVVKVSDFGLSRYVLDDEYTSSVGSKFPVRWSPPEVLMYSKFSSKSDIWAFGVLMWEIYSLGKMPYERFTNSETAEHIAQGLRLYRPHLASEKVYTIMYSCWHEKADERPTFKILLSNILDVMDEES
In words: Whole blood compound screening, phosphorylation of Y223 site of BTK (MSD assay). In kind it is cell-based. To be noted: healthy human whole blood, 2 hours at 37° C., 3 separate donors; read-out: WB BTK-pY223 EC50. As to the method:
Healthy human whole blood (WB) was collected from […]™ Technologies or […]® in sodium heparinized tubes. Whole blood was stored at ambient temperature to avoid coagulation. Each compound was tested in 3 separate donors. Compound stock solutions (10 mM) were used to generate dose titration (8 concentrations, starting concentration 10 μM, 1:4 dilution) in appropriate volume of dimethyl sulfoxide (0.2%). Whole blood was incubated with compounds in 96-well plates for 2 hours in tissue culture incubators at 37° C. under a 5% CO2 atmosphere. The whole blood was lysed in equal volume of lysis buffer (Cell Signaling Technology®, Danvers, Mass.) containing complete protease inhibitor tablet, PhosSTOP™ tablet, sodium orthovanadate and sodium fluoride and phenylmethanesulfonyl fluoride solution. The lysed whole blood was then frozen at −80° C. for overnight.
Phosphorylation of Y223 of BTK was measured using an MSD assay (Meso Scale Diagnostics, LLC, Rockville, Md.). The thawed lysed whole blood was incubated with the capturing antibody rabbit anti-human BTK (D3H5) (Cell Signaling Technology, Danvers, Mass.) at 4° C. overnight. After washing out the unbound samples, the detection antibody biotinylated rabbit anti-pY223-BTK(D9T6H) (Cell Signaling Technology®, Danvers, Mass.) was added to the plates. After washing out the unbound antibodies, SULFO-TAG Streptavidin (Meso Scale Diagnostics, LLC, Rockville, Md.) was used for detection on Meso Sector S600 (Meso Scale Diagnostics, LLC, Rockville, Md.).
The EC50 values were determined using software from Dotmatics. The activity of exemplary compounds is illustrated below.

T1 sequence (Q06187 whole entry): as above

With `C=CC(=O)N1C2CC1CN(C1CCNc3c1nn(-c1ccc(Oc4ccccc4)cc1)c3C(N)=O)C2` (stereo not drawn) [Example 45, 2-(4-phenoxyphenyl)-7-[6-(prop-2-enoyl)-3,6-diazabicyclo[3.1.1]heptan-3-yl]-4,5,6,7-tetrahydro-2H-pyrazolo[4,3-b]pyridine-3-carboxamide], the pIC50 (usually −log10 of the IC50, conventionally taken in molar units) at BTK was 8.63. Besides, the “CYP3A4 Ind. fold” value with CYP3A4 amounted to 25.40 fold.
For the molecule `CCO/C=C/C(=O)N1CCN([C@@H]2CCNc3c2nn(-c2ccc(Oc4ccccc4)cc2)c3C(N)=O)CC1` [Example 50, (7R)-7-{4-[(2E)-3-ethoxyprop-2-enoyl]piperazin-1-yl}-2-(4-phenoxyphenyl)-4,5,6,7-tetrahydro-2H-pyrazolo[4,3-b]pyridine-3-carboxamide], the pIC50 in series [1] was 7.41.
Take `COC(=O)/C=C/C(=O)N1CCN(C2CCNc3c2nn(-c2ccc(Oc4ccccc4)cc2)c3C(N)=O)CC1` (stereo not drawn) [Example 51, methyl (2E)-4-{4-[3-carbamoyl-2-(4-phenoxyphenyl)-4,5,6,7-tetrahydro-2H-pyrazolo[4,3-b]pyridin-7-yl]piperazin-1-yl}-4-oxobut-2-enoate]: the pIC50 in series [1] is 6.29.
On to `C=CC(=O)N1CCN([C@@H]2CCNc3c2nn(-c2ccc(Oc4cc(F)cc(F)c4)cc2)c3C(N)=O)CC1` [Example 58, (7R)-2-[4-(3,5-difluorophenoxy)phenyl]-7-[4-(prop-2-enoyl)piperazin-1-yl]-4,5,6,7-tetrahydro-2H-pyrazolo[4,3-b]pyridine-3-carboxamide], for which the pIC50 on BTK was 7.11. Besides, the “CYP3A4 Ind. fold” value in the series on CYP3A4 is listed as 1.58 fold.
Consider `C=CC(=O)N1CCN([C@H]2CCNc3c2nn(-c2ccc(Oc4cc(F)cc(F)c4)cc2)c3C(N)=O)CC1` [Example 59, (7S)-2-[4-(3,5-difluorophenoxy)phenyl]-7-[4-(prop-2-enoyl)piperazin-1-yl]-4,5,6,7-tetrahydro-2H-pyrazolo[4,3-b]pyridine-3-carboxamide], for which the pIC50 on BTK is 8.66. In addition, the pEC50 (in general, −log10 of the EC50, conventionally taken in molar units) in series [2] was 6.93. Also, the “CYP3A4 Ind. fold” value with CYP3A4 is given as 0.85 fold.
`C=CC(=O)N1CCN([C@@H]2CCNc3c2nn(-c2ccc(Oc4cccc(OC)c4)cc2)c3C(N)=O)CC1` [Example 91, (7R)-2-[4-(3-methoxyphenoxy)phenyl]-7-[4-(prop-2-enoyl)piperazin-1-yl]-4,5,6,7-tetrahydro-2H-pyrazolo[4,3-b]pyridine-3-carboxamide]: on BTK, the pIC50 is 8.78. In series [2], the pEC50 was 6.40.
Consider `C=CC(=O)N1CCN([C@@H]2CCNc3c2nn(-c2ccc(Oc4ccc(C)cc4)cc2)c3C(N)=O)CC1` [Example 92, (7R)-2-[4-(4-methylphenoxy)phenyl]-7-[4-(prop-2-enoyl)piperazin-1-yl]-4,5,6,7-tetrahydro-2H-pyrazolo[4,3-b]pyridine-3-carboxamide], for which, on BTK, the pIC50 was 8.62. In addition, in series [2], the pEC50 is 6.22.
As for `C=CC(=O)N1CCN([C@@H]2CCNc3c2nn(-c2ccc(Oc4ccccc4OC)cc2)c3C(N)=O)CC1` [Example 93, (7R)-2-[4-(2-methoxyphenoxy)phenyl]-7-[4-(prop-2-enoyl)piperazin-1-yl]-4,5,6,7-tetrahydro-2H-pyrazolo[4,3-b]pyridine-3-carboxamide], the pIC50 at BTK was 8.29. Further, the pEC50 in series [2] was 6.40.
